Source: US9126999B2, “Tetrahydropyrazolopyrimidine compounds” (EISAI R&D MANAGEMENT CO., LTD., priority 2012, dated 2015)
pIC50: −log10 of the molar value.

System: T1, Human TLR7/8
T1 construct: IC50; other: Hu PBMC; ligand RNA-Ig; analyte IL-6; analyte TNFα; ligand R848; IC50 against the RNA-Ig TLR7/8 stimulus; cytokine responses to RNA-Ig complexes in vitro; potency against the RNA-Ig TLR7/8 stimulus versus HCQ
Experiment: Human PBMC cell-based assay, R848 stimulus, IL-6 ELISA
Conditions: Hu PBMC; ligand R848; analyte IL-6
Method: Human peripheral blood mononuclear cells (PBMC) were isolated from freshly-drawn heparinized (10 USP units/ml, Hospira, Lakeforest, Ill.) healthy donor whole blood by density gradient (Histopaque® 1077, Sigma, Inc., St. Louis, Mo.). Briefly, 25 ml blood was diluted with 15 ml PBS (without Ca^2+, Mg^2+) in a 50 ml conical tube, and 12 ml Histopaque was underlaid using a spinal needle. Tubes were centrifuged for 45 minutes at 1200 rpm (350×g), and PBMC were collected from the buffy coat. Cells were then washed twice in PBS, and red blood cells were lysed by suspension in 5 ml ammonium chloride solution (1× Red Blood Cell Lysis Buffer, eBioscience) for 5 minutes at room temperature. […]
Antagonist compounds solubilized and serial diluted in 100% DMSO were added in triplicate to cells to yield a final concentration of 0.1% DMSO (v/v). […] Cell culture supernatants were collected, and levels of various human cytokines were assessed as indicated by standard ELISA procedure according to the manufacturer's recommended protocol (BD Biosciences, Inc., San Diego, Calif.).

## COc1ccc([C@@H]2C[C@H](C(F)(F)F)n3nc(-c4ccc(C(=O)N5CCNCC5)cc4)cc3N2)cc1OC [ER-892887, (4-((5S,7R)-5-(3,4-dimethoxyphenyl)-7-(trifluoromethyl)-4,5,6,7-tetrahydropyrazolo[1,5-a]pyrimidin-2-yl)phenyl)(piperazin-1-yl)methanone]
  pIC50: 7.80
